The values that follow come from publication PMC9962638, “Integrating Siderophore Substructures in Thiol-Based Metallo-β-Lactamase Inhibitors” (Molecules, 2023).

The target of this assay is T1, NDM-1 (Klebsiella pneumoniae, UniProt C7C422).
T1 construct: gene blaNDM-1; recombinant, expressed in E. coli
T1 sequence (C7C422 29-270 limits assumed): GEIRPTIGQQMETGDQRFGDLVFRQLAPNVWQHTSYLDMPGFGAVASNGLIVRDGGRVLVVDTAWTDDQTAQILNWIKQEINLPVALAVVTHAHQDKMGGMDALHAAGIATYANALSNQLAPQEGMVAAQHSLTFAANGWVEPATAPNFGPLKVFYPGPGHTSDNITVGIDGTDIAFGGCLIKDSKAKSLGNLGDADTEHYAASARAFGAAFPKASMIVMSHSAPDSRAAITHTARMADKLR
The assay is described as follows: fluorescence enzyme assay, fluorocillin hydrolysis. In kind it is biochemical. The text has this:
fluorescence enzyme assay, fluorocillin hydrolysis on NDM-1
A word on the IC50: it is the concentration that gives 50% inhibition. A low value points to greater potency. For `O=C(O)[C@H]1CCCCN1C(=O)C(CS)Cc1cccc(O)c1O` (stereo partly drawn) [compound 2, (2R)-1-(2-(2,3-dihydroxybenzyl)-3-mercaptopropanoyl)piperidine-2-carboxylic acid], the IC50 was determined as 4.3 ± 0.44 µM.

As for `C[C@H](CS)C(=O)N1CCN(C(=O)CCc2ccc(O)c(O)c2)C[C@@H]1C(=O)O` [compound 3, (R)-4-(3-(3,4-dihydroxyphenyl)propanoyl)-1-((S)-3-mercapto-2-methylpropanoyl)piperazine-2-carboxylic acid], half-maximal inhibition (IC50) was put at 0.13 ± 0.017 µM. The result for `COc1cccc(CC(CS)C(=O)N2CCCC[C@@H]2C(=O)O)c1OC` (stereo partly drawn) [compound 12, (2R)-1-(2-(2,3-dimethoxybenzyl)-3-mercaptopropanoyl)piperidine-2-carboxylic acid] reads 1.9 ± 0.27 µM; that for `COc1ccc(CCC(=O)N2CCN(C(=O)[C@H](C)CS)[C@@H](C(=O)O)C2)cc1OC` [compound 18, (R)-4-(3-(3,4-dimethoxyphenyl)propanoyl)-1-((S)-3-mercapto-2-methylpropanoyl)piperazine-2-carboxylic acid], 0.22 ± 0.016 µM.
